Test results from article PMC8508960, “Ruthenium Half-Sandwich Type Complexes with Bidentate Monosaccharide Ligands Show Antineoplastic Activity in Ovarian Cancer Cell Models through Reactive Oxygen Species Production” (International Journal of Molecular Sciences, 2021).
Values belong to the compound of their own block, whether it stands above or below them.

Experiments:
[1] = Aqueous stability over time by NMR; assay type: physicochemical; details: aqueous medium, 2 day old equilibrated sample, KCl added
Text: The aqueous stability of the complexes was also studied over time. The small shifts of signals attributable to the structural change of the complex can be observed; however, by adding KCl to the 2 day old equilibrated sample, the original signals could be recovered.

[2] = Determination of the distribution coefficients (logD), n-octanol/PBS; assay type: physicochemical; details: n-octanol / PBS pH = 7.40
Procedure: Prior to the experiments, n-octanol was saturated with aqueous PBS solution (pH = 7.40) and vice versa. The corresponding complex (approximately 0.2–0.3 mg) was dissolved in a mixture of 2.50 mL of pre-saturated n-octanol and 2.50 mL of pre-saturated PBS buffer, and the mixture was vigorously stirred for 3 days. According to the NMR stability measurements, this time was necessary to reach equilibrium between the various ionic complex species. Due to the lipophilic/hydrophilic character of the complexes, those with benzoyl protection or the non-sugar derivative could mostly be found in the n-octanol, while the acetyl and non-protected complexes could be found in the aqueous PBS phase. The appropriate separated solution was centrifuged (ScanSpeed 406G instrument, 4000 RPM for 5 min), and the absorption of the “stock solution” was measured (VWR UV-1600PC Spectrophotometer, 270–420 nm). Then 2.00 mL of stock solution was stirred vigorously with 16.00 mL of pre-saturated, clean n-octanol or PBS solution. After 1 day, the phases were separated and centrifuged, and the absorption of the solution was measured again. From the absorption difference of the stock solutions, the distribution coefficient (D) was calculated according to the previously described formulae [66].

[3] = tested on: A2780 human ovarian carcinoma cells; assay: SRB proliferation assay (48 h) on A2780 cells; assay type: cell-based
Procedure: (§1) Cells were cultured under standard cell culture conditions, 37 °C, 5% CO2, humidified atmosphere. A2780 cells were cultured in RMPI 1640 medium supplemented with 10% fetal calf serum, 2 mM glutamine, and 1% penicillin–streptomycin (Sigma-Aldrich). ID8 cells were cultured in high-glucose DMEM (4.5 g/L glucose) supplemented with 4% fetal calf serum, 2 mM glutamine, 1% penicillin–streptomycin (Sigma-Aldrich), and 1% ITS supplement (Sigma-Aldrich I3146). U251 cells were maintained in MEM (Sigma-Aldrich), 10% fetal bovine serum (Sigma-Aldrich), 1% penicillin/streptomycin (Invitrogene), and 2 mM glutamine. MCF7 cells were maintained in MEM (Sigma-Aldrich), 10% fetal bovine serum (Sigma-Aldrich), 1% penicillin/streptomycin (Invitrogen, Waltham, MA, USA), and 2 mM glutamine. Capan2 cells were maintained in MEM (Sigma-Aldrich), 10% fetal bovine serum (Sigma-Aldrich), 1% penicillin/streptomycin (Invitrogen), and 2 mM glutamine. Human primary dermal fibroblasts were cultured in low-glucose DMEM (1 g/L glucose) supplemented with 20% fetal calf serum, 2 mM glutamine, and 1% penicillin–streptomycin (Sigma-Aldrich).
(§2) The SRB accumulation assay assesses protein content in a sample, and it was used to assess cell proliferation. The SRB accumulation assay was performed similarly to [68]. Cells were seeded in 96-well plates. The next day, cells were treated with the compounds for 48 h in the concentrations indicated in a cell incubator. At the end of treatment, cells were fixed with 10% trichloroacetic acid (TCA). Fixed cells were stained with SRB (0.4% m/v dissolved in 1% acetic acid) for 60 min. Fixed cells were washed in 1% acetic acid three times; acetic acid was removed, and cells were left to dry. Protein-bound SRB was released by adding 100 µL of 10 mM Tris base. Plates were measured in a plate photometer (Thermo Scientific Multiscan GO spectrophotometer, Waltham, MA, USA) at 540 nm. On each plate, wells were designed to contain untreated cells. In calculations, the readings for these wells were considered as 1, and all readings were expressed relative to these values.
(§3) Statistical analysis was performed using Graphpad Prism version 8.0.1. Values were tested for normal distribution using the D’Agostino and Pearson normality test. When necessary, values were log-normalized or were normalized using the Box–Cox normalization method, as indicated in the figure captions. Nonlinear regression was performed using the built-in “[Inhibitor] vs. response—variable slope (four parameters), least square fit” utility of Graphpad that yielded IC50 and Hill slope values.

ID8 cells [4] = assay: SRB proliferation assay (48 h) on ID8 cells; assay type: cell-based
Procedure: as §1, §2, §3

[5] = tested on: human primary skin fibroblasts; assay: SRB proliferation assay (48 h) on primary fibroblasts; assay type: cell-based; details: primary human fibroblasts
Procedure: as §1, §2, §3

[6] = tested on: U251 cells (glioblastoma model); assay: SRB proliferation assay (48 h) on U251 cells; assay type: cell-based; details: nonlinear regression
Procedure: as §1, §2, §3

[7] = tested on: MCF7 cells (breast cancer); assay: SRB proliferation assay (48 h) on MCF7 cells; assay type: cell-based; details: nonlinear regression
Procedure: as §1, §2, §3

[8] = tested on: Capan2 (pancreatic adenocarcinoma); assay: SRB proliferation assay (48 h) on Capan2 cells; assay type: cell-based; details: nonlinear regression
Procedure: as §1, §2, §3

[9] = tested on: A2780 human ovarian carcinoma cells; assay: MTT reduction assay (4 h, rapid toxicity) on A2780 cells; assay type: cell-based
Procedure: as §1
(§4) The MTT reduction assay assesses the activity of mitochondrial complex I, and it was used to assess rapid toxicity. The MTT reduction assay was performed similarly to [67]. Cells were seeded in 96-well plates. The next day, cells were treated with the compounds for 4 h in the concentrations indicated in a cell incubator. At the end of treatment, MTT was added in 0.5 mg/mL final concentration, and cells were incubated at 37 °C in a cell incubator. Then, culture media was removed, the reduced MTT dye was resolved in dimethyl sulfoxide (DMSO), and plates were measured in a plate photometer (Thermo Scientific Multiscan GO spectrophotometer, Waltham, MA, USA) at 540 nm. On each plate, wells were designed to contain untreated/vehicle-treated cells. In calculations, the readings for these wells were considered as 1, and all readings were expressed relative to these values.

ID8 cells [10] = assay: MTT reduction assay (4 h, rapid toxicity) on ID8 cells; assay type: cell-based; details: above 10 µM concentration
Procedure: as §1, §4

[11] = tested on: human primary skin fibroblasts; assay: MTT reduction assay (4 h, rapid toxicity) on primary fibroblasts; assay type: cell-based
Procedure: as §1, §4

A2780 cells [12] = assay: Annexin V-FITC, PI double staining (flow cytometry); assay type: cell-based, human; details: concentration corresponding to IC50, 2 h, 4 h or 48 h
Procedure: Annexin V–PI double staining was applied to assess apoptotic and necrotic cell death similar to [37, 38, 69]. A2780 cells were treated with the indicated compounds at the concentration corresponding to their IC50 value for 2, 4, and 48 h. The 4 and 48 h time points correspond to the time points for the MTT and SRB assays, while the 2 h time point reflects the optimum time point for the detection of apoptotic or necrotic cell death. Quadrants were set on the basis of the FITC and PI values observed for the vehicle-treated cells.

A2780 cells [13] = assay: Western blotting of 4-hydroxy-nonenal (4HNE), oxidative stress marker; assay type: cell-based, human; details: concentration corresponding to IC50, 48 h
Procedure: The preparation of protein extracts, the separation of protein extracts in SDS-polyacrylamide gel electrophoresis, and the subsequent Western blotting were performed as described in [70] using the antibodies in Table 4. Enhanced chemiluminescence was developed using ChemiDoc Imager, (Bio-Rad, Hercules, CA, USA). Densitometry was performed using Image Lab Touch Software, Bio-Rad, Hercules, CA, USA).

A2780 cells [14] = assay: SRB assay on A2780 cells with antioxidant cotreatment (GSH, NAC, MitoTEMPO, vitamin E, Trolox); assay type: cell-based, human; details: 48 h
Procedure: as §2

A2780 cells [15] = assay: SRB assay on A2780 cells with or without 3 µM rucaparib; assay type: cell-based, human; details: 48 h, vehicle (no rucaparib)
Procedure: as §2, §3

[16] = SRB, nonlinear regression, N/A = could not be calculated/had no effect

SMILES: Cc1ccc(C(C)C)cc1.F[P-](F)(F)(F)(F)F.OCC1OC(n2cc(-c3ccccn3)nn2)C(O)C(O)C1O.[Cl][Ru+] (mixture of isomers) [Ru-3a]
- aqueous stability over time (NMR) [1]: only the exchange of the coordinating chloride ion by a water molecule occurred in a reversible manner

- logD [2]: 2.44
- IC50 [3, 16]: 4.27 µM
- IC50 [6]: 4.49 µM
- IC50 [7]: 3.75 µM
- IC50 [8]: 3.82 µM
- IC50 (A2780 cells [15]): 4.17 µM
SMILES: Cc1ccc(C(C)C)cc1.F[P-](F)(F)(F)(F)F.O=C(OCC1OC(c2nnc(-c3ccccn3)o2)C(OC(=O)c2ccccc2)C(OC(=O)c2ccccc2)C1OC(=O)c1ccccc1)c1ccccc1.[Cl][Ru+] (mixture of isomers) [Ru-8]
- cytostatic activity in long-term SRB assay (in words) ([3]; A2780 cells, 100–0.0017 µM): cytostatic properties
- Hill slope (span over cell lines) ([3]; SRB curves, A2780 and ID8 cells): 2–3
- A2780 Hill Slope [3, 16]: 3.50
- cytostatic activity in long-term SRB assay (in words) (ID8 cells [4]; ID8 cells): cytostatic
- IC50 (ID8 cells [4]; [16]): 7.94 µM
- ID8 Hill Slope (ID8 cells [4]; [16]): 3.31
- effect in long-term SRB assay (in words) [5]: no effect
- U251 Hill Slope [6]: 2.50
- MCF7 Hill Slope [7]: 2.06
- Capan2 Hill Slope [8]: 1.66
- effect in short-term MTT assay, rapid toxicity (in words) [9]: cytostatic properties
- effect on MTT signal above 10 µM ([9]; above 10 µM concentration): reduced the MTT signal
- effect on MTT signal above 10 µM (ID8 cells [10]): reduced the MTT signal
- effect in short-term MTT assay, rapid toxicity (in words) [11]: no effect
- proportions of PI-positive, annexin V-positive and double-positive cells (A2780 cells [12]): did not largely increase
- expression of oxidative stress marker 4-hydroxy-nonenal (4HNE) (A2780 cells [13]): increase in the expression
- effect of GSH and NAC cotreatment on the cytostatic effects of the complex (A2780 cells [14]): attenuated the cytostatic effects
- effect of MitoTEMPO on the cytostatic effects of the complex (A2780 cells [14]): did not modulate the effects
